Measured values reported in patent US11613538B2, “Method of inhibiting or reducing a viral infection” (PTC Therapeutics, Inc., priority 2009, dated 2023).
In brackets after ≈: the same amount, converted by molar mass. Marks after values point to notes of the source that are not given here.

Key:
[1] = test system: murine kidney VEGF; assay: Mouse kidney VEGF levels in tumor-bearing mice; assay type: in vivo; details: 0.5 mg/kg (28 days) or 3 mg/kg (32 days); in words
Procedure: After mouse tumors reached 1500 mm^3, mice were sacrificed and tissues were collected at the time of necropsy, homogenized, and analyzed. On average, mice treated with Compound 1205 at 0.5 mg/kg were on study for 28 days, and mice treated with Compound 1205 at 3 mg/kg were on study for 32 days.

[2] = Bioavailability in vivo of aqueous suspension; details: in words
From the text: It is anticipated that Compound 1205 can be clinically administered via a solid-dosage form. For all the studies outlined herein, Compound 1205 was lyophilized prior to formulation to minimize batch-to-batch variations in particle-size.

[3] = test system: human VEGF; assay: Intra-tumor and plasma human VEGF in HT1080 xenograft mice (ELISA); assay type: in vivo; details: for Mean difference in human plasma VEGF (%) on Day 14 / Mean difference in human tumor VEGF (%) at Day 14: 14 days
From the text: Human HT1080 cells (5×10^6 cells/mice) were implanted subcutaneously into male athymic nude mice. Human HT1080 cells constitutively produce human VEGF. Treatment with vehicle alone or Compound 1205 was initiated when the median tumor volume was approximately 311±88 mm^3. Table 3 and Table 4 provide the study design for assessing tumor and pathological plasma VEGF concentrations—each group in each study included eight (8) mice. When the tumors in vehicle-treated mice had reached the target size of about 1200 mm^3 for study #21 and about 1500 mm^3 for study #23, all mice in the study were sacrificed, and excised tumors were homogenized in buffer containing protease inhibitors. Both intra-tumor and plasma human VEGF levels were measured using an ELISA that recognizes human VEGF121 and VEGF165. Intra-tumor VEGF levels were normalized to the total tumor protein concentration and plasma VEGF levels were expressed in pg/mL. Because smaller tumors produce less VEGF per mg of tumor protein, intra-tumor VEGF levels were normalized to tumor size.

[4] = test system: HT1080 cells; assay: Cell cycle analysis of HT1080 cells (propidium iodide, flow cytometry); assay type: cell-based, human; details: 10 nM, 18 hours, normoxic conditions; in words
Procedure: During the in vitro evaluation of Compound 1205 effects on VEGF expression, an examination of its actions on tumor cell cycling was performed. HT1080 cells were incubated under normoxic conditions (21% oxygen) for 18 hours with vehicle (0.5% DMSO) alone, or with 10 nM of Compound 1205. After treatment, cells were trypsinized, and stained with propidium iodide (PI) dye to measure DNA content of individual cells by flow cytometry. Output comprised histograms showing relative DNA content in 10,000 cells.

[5] = Solubility in water
[6] = test system: hypoxia-induced VEGF production in HeLa cells; assay: cells; assay type: cell-based, human
[7] = test system: HT1080 xenografts; assay: HT1080 xenograft tumor growth in male athymic nude mice; assay type: in vivo
From the text: Experimental Design. HT1080 cells (5×10^6 cells/mouse) were implanted subcutaneously in male athymic nude mice. […] For comparison, Compound #10 was included in this study.

[8] = Plasma trough levels in patients having a variety of cancers; assay type: in vivo, human; details: combination therapy with Compound #10; in words
[9] = test system: VEGF production in tumor cells; assay: VEGF production in tumor cells (data not shown); assay type: cell-based; details: in words
From the text: In addition to its effects on pathological VEGF production, a Compound provided herein provokes a late GI/early S-Phase cell cycle delay, i.e., between the late resting or pre-DNA synthesis phase, and the early DNA synthesis phase in those tumor cell lines in which VEGF generation is decreased by the Compound. See Section 8.3. […] The cell cycle delay and inhibition of pathological VEGF protein production occur in concert, linking these phenotypes in inflammation, pathological angiogenesis and tumor growth. […] Thus, these experiments indicate that the effects of the Compound on the tumor cell cycle occur in parallel with its actions on pathological VEGF production in tumors.

## O=C(Oc1ccc(Cl)cc1)N1CCc2c([nH]c3ccc(Cl)cc23)[C@@H]1c1ccc(OCC[C@H](O)CO)cc1 [Compound 1205]
[1]
  Murine kidney VEGF levels (FIG. 6): did not significantly decrease murine kidney VEGF levels
[2]
  Bioavailability: bioavailable in vivo
[3]; 0.5 or 3 mg/kg QD
  Inhibition of plasma VEGF levels: more than 95%
  Inhibition of tumor VEGF levels: more than 95%
[3]; Study #21, 0.5 mg/kg QD
  Mean difference in human plasma VEGF (%) on Day 14: 97%**
  Mean difference in human tumor VEGF (%) at Day 14: 95%**
[3]; Study #21, 3 mg/kg QD
  Mean difference in human plasma VEGF (%) on Day 14: 99%
  Mean difference in human tumor VEGF (%) at Day 14: 98%**
[3]; Study #23, 1 mg/kg QD
  Mean difference in human plasma VEGF (%) on Day 14: 100%**
  Mean difference in human tumor VEGF (%) at Day 14: 95** %
[3]; treated groups vs vehicle, in words
  Volume normalized intra-tumor VEGF levels: significantly reduced
[4]
  Cell cycle distribution (relative DNA content, FIG. 5): induced a redistribution of the cycling characteristics of the cell population
[5]
  solubility: ~1 µg/mL (≈ 1.85 µM)
[6]
  Inhibition of stress-induced VEGF production (FIG. 1): inhibit stress-induced VEGF production
[6]; Homo sapiens, HeLa
  EC50: < 8 nM
[7]; HT1080 xenograft
  Lowest dose at which active: ≤ 0.3 mg/kg
[7]; Study 21, 0.5 mg/kg QD, Day 14
  Mean difference in tumor growth rate at the Day that the vehicle-treated tumors taken off study (%): 61%**
[7]; Study 21, 0.5 mg/kg QD, administered 14 days
  Final mean terminal tumor size in treatment group (mm^3): 580 mm^3
[7]; Study 21, 3 mg/kg QD, Day 14
  Mean difference in tumor growth rate at the Day that the vehicle-treated tumors taken off study (%): 80%**
[7]; Study 21, 3 mg/kg QD, administered 14 days
  Final mean terminal tumor size in treatment group (mm^3): 379 mm^3
[7]; Study 22, 0.5 mg/kg QD
  Difference vs. vehicle in median number of days to reach 1000 mm^3,: 11 days
[7]; Study 22, 0.5 mg/kg QD, Day 11
  Mean difference in tumor growth rate at the Day that the vehicle-treated tumors taken off study (%): 62%**
[7]; Study 22, 0.5 mg/kg QD, administered 28 days
  Final mean terminal tumor size in treatment group (mm^3): 1750 mm^3
[7]; Study 22, 3 mg/kg QD
  Difference vs. vehicle in median number of days to reach 1000 mm^3, (Days): 14** Days
[7]; Study 22, 3 mg/kg QD, Day 11
  Mean difference in tumor growth rate at the Day that the vehicle-treated tumors taken off study (%): 75%**
[7]; Study 22, 3 mg/kg QD, administered 32 days
  Final mean terminal tumor size in treatment group (mm^3): 1840 mm^3
[7]; Study 23, 1 mg/kg QD, Day 14
  Mean difference in tumor growth rate at the Day that the vehicle-treated tumors taken off study (%): 59%**
[7]; Study 23, 1 mg/kg QD, administered 14 days
  Final mean terminal tumor size in treatment group (mm^3): 710 mm^3
[7]; Study 24a, 10 mg/kg QD, Compound 1205 column
  Difference vs. vehicle in median number of days to reach 1000 mm^3, (Days): 14** Days
[7]; Study 24a, 10 mg/kg QD, Day 11, Compound 1205 column
  Mean difference in tumor growth rate at the Day that the vehicle-treated tumors taken off study (%): 76%**
[7]; Study 24a, 10 mg/kg QD, administered 30 days
  Final mean terminal tumor size in treatment group (mm^3): 1400 mm^3
[7]; Study 24b, 0.3 mg/kg QD
  Difference vs. vehicle in median number of days to reach 1000 mm^3,: 0.7 days
[7]; Study 24b, 0.3 mg/kg QD, Day 15
  Mean difference in tumor growth rate at the Day that the vehicle-treated tumors taken off study (%): 28%
[7]; Study 24b, 0.3 mg/kg QD, administered 16 days
  Final mean terminal tumor size in treatment group (mm^3): 1540 mm^3
[7]; study #24a, 10 mg/kg QD, in words
  Growth of HT1080 tumors in vivo (FIG. 4): significantly delayed growth of HT1080 tumor cells in vivo

## CC(=O)O[C@@]12CO[C@@H]1C[C@H](O)[C@@]1(C)C(=O)[C@H](O)C3=C(C)[C@@H](OC(=O)[C@H](O)[C@@H](NC(=O)OC(C)(C)C)c4ccccc4)C[C@@](O)([C@@H](OC(=O)c4ccccc4)[C@H]21)C3(C)C [docetaxel]
[8]
  PK profile (FIG. 18): consistent with historical data

## NC(Cn1ccc(=O)c(O)c1)C(=O)O (stereo not shown) [mimosine]
[9]
  Effect on VEGF production: does not reduce VEGF production
